Experimental findings from ChEMBL document CHEMBL1149003, “Studies on cytotoxic constituents in pericarps of Mallotus japonicus, Part II” (J Nat Prod, 1986) are described below.

≈ marks a conversion by molar mass, not a printed value. Bounds are passed on as bounds.

In series [1] the test system is L5178Y. The experiment in a line: Cytotoxicity against mouse L5178Y cells. The format is functional. The conditions noted are these: read-out: ED50 (the source's name).
The subject of series [2] is KB. The experiment in a line: Cytotoxicity against human KB cells. Conditions: read-out: ED50 (the source's name). The class given is functional.
Series [3] in a line: Antitumor activity against mouse solid EAC cells xenografted in ddY mouse assessed as tumor weight at 20 mg/kg, ip qd for 3 to 8 days measured after 10 days. The class given is functional, Ehrlich. The conditions noted are these: route intraperitoneal.
Series [4] is described as follows: Antitumor activity against mouse solid EAC cells xenografted in ddY mouse at 7 mg/kg, ip qd for 3 to 8 days measured after 10 days relative to control. The format is functional, Ehrlich. The conditions noted are these: route intraperitoneal.
The test system of series [5] is Mus musculus. Put plainly: Toxicity in ddY mouse xenografted with mouse solid Ehrlich carcinoma cells assessed as mortality at 20 mg/kg, ip qd for 3 to 8 days measured after 10 days. The class given is organism-based. The arrangement: dose 20 mg/kg, route intraperitoneal. The conditions noted are these: in vivo, 240 h.
The nature of series [6]: Antitumor activity against mouse EAC cells xenografted in ddY mouse assessed as median survival time at 20 mg/kg, ip qd for 2 to 8 days. The format is functional, Ehrlich. The conditions noted are these: route intraperitoneal.
Series [7] can be described thus: Antitumor activity against mouse EAC cells xenografted in ddY mouse assessed as median survival time at 7 mg/kg, ip qd for 2 to 8 days. The class given is functional, Ehrlich. The conditions noted are these: route intraperitoneal.
Series [8] can be described thus: Antitumor activity against mouse solid EAC cells xenografted in ddY mouse at 20 mg/kg, ip qd for 3 to 8 days measured after 10 days relative to control. Conditions: route intraperitoneal. The class given is functional, Ehrlich.
A short description of series [9]: Antitumor activity against mouse solid EAC cells xenografted in ddY mouse assessed as tumor weight at 7 mg/kg, ip qd for 3 to 8 days measured after 10 days. The class given is functional, Ehrlich. Conditions: route intraperitoneal.
Series [10] has as its system Mus musculus. Put plainly: Toxicity in ddY mouse xenografted with mouse solid Ehrlich carcinoma cells assessed as mortality at 7 mg/kg, ip qd for 3 to 8 days measured after 10 days. The format is organism-based. Further details: dose 7 mg/kg, route intraperitoneal. The conditions noted are these: in vivo, 240 h.

Consider `C=C(C)C(O)Cc1c(O)c(Cc2c(O)c(C(C)=O)c(O)c(C)c2OC)c(O)c(C(C)=O)c1O` (racemic), for which the EC50 in series [1] came to 2.45 µg/mL (≈ 5.32 µM); in series [2], 1.22 µg/mL (≈ 2.65 µM).

In the case of `COc1c(C)c(O)c(C(C)=O)c(O)c1Cc1c(O)c(CC=C(C)C)c(O)c(C(C)=O)c1O` [MALLOTOJAPONIN], the Activity is given as 0.59 g in [3], “Non-toxic” in series [5], 0.93 g in series [9] and “Non-toxic” in [10]. The values for the T/C in series [4] and in series [8] were 78.1% and 49.5%, respectively. Besides, the MST came to 14 days in series [6] and 20 days in series [7]. In addition, the EC50 in series [1] is 0.74 µg/mL (≈ 1.66 µM); in [2], 0.58 µg/mL (≈ 1.3 µM).

For the compound `COc1c(C)c(O)c(C(C)=O)c(O)c1Cc1c(O)c2c(c(C(C)=O)c1O)OC(C)(C)C(O)C2` (racemic) [MALLOTOCHROMANOL], the EC50 in series [1] and in series [2] was more than 100 µg/mL in each case.

As to `C=C(C)C(O)Cc1c(O)c(Cc2c(O)c(C(C)=O)c(O)c(C)c2OC)c(O)c(C(=O)CCC)c1O` (racemic) [MALLOTOLERIN], the EC50 in series [1] came to 0.82 µg/mL (≈ 1.68 µM); in series [2], 0.95 µg/mL (≈ 1.94 µM).

For the compound `COc1c(C)c(O)c(C(C)=O)c(O)c1Cc1c(O)c2c(c(C(C)=O)c1O)OC(C)(C)C=C2` [MALLOTOCHROMENE], the EC50 in [1] amounted to 1.25 µg/mL (≈ 2.83 µM); in series [2], 2.1 µg/mL (≈ 4.75 µM).

The T/C is the ratio of treated to control.
